This note sets out measurements from ChEMBL document CHEMBL1143500, “Novel heterocyclic thyromimetics” (Bioorg Med Chem Lett, 2005).

The first assay deals with T1, Thyroid hormone receptor (Homo sapiens) (UniProt P10827+P10828). Put plainly: (§1) Agonist activity towards thyroid hormone receptor expressed in human HepG2 cells. In kind it is functional, cell-based.
Take `Cc1cc(OCC(=O)O)cc(C)c1Oc1ccc2[nH]cc(C(C)C)c2c1`: the Concentration came to 24 nM.

The target in the next assay is T1, Thyroid hormone receptor (Homo sapiens). Briefly: Selectivity for THRalpha and THRbeta, ratio of EC50. In kind it is protein-complex assay.
As to `CCOC(=O)CC(=O)Nc1cc(C)c(Oc2ccc3[nH]cc(C(C)C)c3c2)c(Cl)c1`, the Selectivity came out at 10. On the same count and under the same terms, in the case of `CCOC(=O)C(=O)Nc1cc(C(F)(F)F)c(Oc2ccc3[nH]cc(C(C)C)c3c2)c(C(F)(F)F)c1` it was 10; in that of `CCOC(=O)C(=O)Nc1cc(C)c(Oc2ccc3[nH]cc(C(C)C)c3c2)c(C)c1`, 10.

The target in the next assay is T2, Thyroid hormone receptor (Homo sapiens, UniProt P10827+P10828).
T2 sequence (P10827 whole entry): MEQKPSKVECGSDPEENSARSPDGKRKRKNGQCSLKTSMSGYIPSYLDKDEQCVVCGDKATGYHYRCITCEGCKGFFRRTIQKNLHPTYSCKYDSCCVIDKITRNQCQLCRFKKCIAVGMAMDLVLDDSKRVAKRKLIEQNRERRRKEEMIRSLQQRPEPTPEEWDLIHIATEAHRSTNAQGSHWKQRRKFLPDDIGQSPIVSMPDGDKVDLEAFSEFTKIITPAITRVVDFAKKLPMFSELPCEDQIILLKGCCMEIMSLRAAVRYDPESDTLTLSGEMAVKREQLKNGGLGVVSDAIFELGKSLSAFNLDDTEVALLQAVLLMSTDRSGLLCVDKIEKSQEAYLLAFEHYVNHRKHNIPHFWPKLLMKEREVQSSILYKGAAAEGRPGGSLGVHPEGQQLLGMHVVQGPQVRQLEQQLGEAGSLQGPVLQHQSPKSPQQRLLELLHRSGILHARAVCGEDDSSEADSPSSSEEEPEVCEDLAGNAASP
T2 sequence (P10828 whole entry): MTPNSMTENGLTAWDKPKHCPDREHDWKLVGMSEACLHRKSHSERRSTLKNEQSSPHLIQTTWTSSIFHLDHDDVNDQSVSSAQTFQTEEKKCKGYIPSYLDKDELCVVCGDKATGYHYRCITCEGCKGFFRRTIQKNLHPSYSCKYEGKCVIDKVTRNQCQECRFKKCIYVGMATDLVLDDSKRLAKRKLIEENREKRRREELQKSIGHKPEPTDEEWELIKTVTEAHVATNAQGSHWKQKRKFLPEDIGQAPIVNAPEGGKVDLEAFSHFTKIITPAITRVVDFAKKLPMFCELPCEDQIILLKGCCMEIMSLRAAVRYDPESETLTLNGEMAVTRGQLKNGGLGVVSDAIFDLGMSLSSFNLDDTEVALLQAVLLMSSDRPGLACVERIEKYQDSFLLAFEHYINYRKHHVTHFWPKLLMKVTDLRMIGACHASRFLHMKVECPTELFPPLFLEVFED
The description is as §1. The assay is classed as functional, cell-based.
`C=Cc1cc(NC(=O)C(=O)OCC)cc(C=C)c1Oc1ccc2[nH]cc(C(C)C)c2c1` showed a concentration for a half-maximal effect (EC50) of 7.8 nM.

`CCOC(=O)C(=O)Nc1cc(C(F)(F)F)c(Oc2ccc3[nH]cc(-c4ccc(F)cc4)c3c2)c(C(F)(F)F)c1` showed an EC50 of 115 nM. Still for that read-out and setting: the value for `CCOC(=O)C(=O)Nc1cc(C(F)(F)F)c(Oc2ccc3[nH]cc(Oc4ccc(F)cc4)c3c2)c(C(F)(F)F)c1` was 495 nM. Same read-out and setting: the value for `CCOC(=O)C(=O)Nc1cc(Cl)c(Oc2ccc3[nH]ccc3c2)c(Cl)c1` was 15 nM; that for `CCOC(=O)CC(=O)Nc1cc(C)c(Oc2ccc3[nH]cc(C(C)C)c3c2)c(Cl)c1` was 8 nM. In turn, `CC(C)c1c[nH]c2ccc(Oc3c(C(F)(F)F)cc(CCC(=O)O)cc3C(F)(F)F)cc12` had a half-maximal effective concentration (EC50) of 2.6 nM.

For the compound `CCCCCc1n[nH]c2ccc(Oc3c(C)cc(NC(=O)C(=O)OCC)cc3C)cc12`, the concentration giving a half-maximal response (EC50) came to 8 nM.

`CCOC(=O)C(=O)Nc1cc(C)c(Oc2ccc3[nH]cc(C)c3c2)c(C)c1` came in with an EC50 of 15 nM. On to `CCOC(=O)C(=O)Nc1cc(C)c(Oc2ccc3[nH]ccc3c2)c(C)c1`, for which a half-maximal effect (EC50) was put at 72 nM. On the same count and under the same terms, the value for `CCOC(=O)C(=O)Nc1cc(C)c(Oc2ccc3[nH]cc(C(C)C)c3c2)c(Cl)c1` was 4 nM; that for `CC(C)c1c[nH]c2ccc(Oc3c(C(F)(F)F)cc(CC(=O)O)cc3C(F)(F)F)cc12` was 0.5 nM. On the same count and under the same terms, the value for `CCOC(=O)C(=O)Nc1cc(C(F)(F)F)c(Oc2ccc3[nH]cc(C(C)C)c3c2)c(C(F)(F)F)c1` was 3 nM. Still for that read-out and setting: the value for `CCOC(=O)C(=O)Nc1cc(C(F)(F)F)c(Oc2ccc3[nH]cc(Cc4ccc(F)cc4)c3c2)c(C(F)(F)F)c1` was 11 nM; that for `CCOC(=O)C(=O)Nc1cc(C(F)(F)F)c(Oc2ccc3[nH]ccc3c2)c(C(F)(F)F)c1` was 23 nM; that for `CC(C)c1c[nH]c2ccc(Oc3c(C(F)(F)F)cc(/C=C/C(=O)O)cc3C(F)(F)F)cc12` was 3.2 nM. Take `CCOC(=O)C(=O)Nc1cc(C)c(Oc2ccc3[nH]cc(C(C)C)c3c2)c(C)c1`: the EC50 was determined as 4 nM. This EC50 and that of the compound before are within 1.5-fold of each other. The same measure, in the same setting: the value for `COC(=O)C(=O)Nc1cc(Cl)c(Oc2ccc3[nH]cc(C(C)C)c3c2)c(Cl)c1` was 4 nM; that for `CCOC(=O)C(=O)Nc1cc(Br)c(Oc2ccc3[nH]cc(C(C)C)c3c2)c(Br)c1` was 1.2 nM; that for `CCOC(=O)C(=O)Nc1cc(C)c(Cc2ccc3[nH]cc(C(C)C)c3c2)c(C)c1` was 18 nM.

Usually EC50 stands for the concentration that produces a half-maximal response.
